These results are taken from US8895502B2, “β2-glycoprotein I peptide inhibitors” (Kansas State University Research Foundation, priority 2010, dated 2014).

Entries after “also recorded” stand apart in the source; their conditions may differ. Ends that are not written are not given here.

Common to all, as to type: in vivo, mouse
The subject of test [1] is C3. In words: Intestinal IR, C3 deposition immunohistochemistry. To be noted: for C3 Deposition: C57Bl/6 mice subjected to IR, peptide 40 μM i.v. 5 min prior to artery occlusion; for C3 deposition / complement activation after IR: C57Bl/6 mice, peptide infused prior to IR. Further details: key to C3 Deposition: + indicates significant difference from Sham treated mice; − indicates not significantly different from C57B1/6 sham treated mice; +/− indicates no significant difference from either C57B1/6 mice subjected to either Sham or IR. The protocol:
(§1) C57Bl/6 and Rag-1^−/− mice were subjected to ischemia followed by reperfusion similar to previously described studies (Moses, T. et al., J. Leukoc. Biol. 86:971-980 (2009)). Briefly, ketamine (16 mg/kg) and xylazine (80 mg/kg) were used to anesthetize the mice. Buprenorphine (0.06 mg/kg) was then administered for pain. A midline laparotomy was performed to expose the abdominal cavity of the mice, which were then allowed to equilibrate for 30 min. Body temperature was maintained at 37° C. using a water-circulating heat pad. Placing a warm, saline moistened piece of gauze over the abdominal cavity prevented peritoneal desiccation. […] Ischemia was noted by the intestine changing from a pink color to a gray color. After 30 min of ischemia, the clamp was removed and the intestines were allowed to reperfuse for 5, 10, 15, or 120 min. […] Mice treated with the various β2-GPI peptides underwent the same procedure with i.v. administration of the peptides (40 μM) 5 min prior to artery occlusion. Peptides 296, 305, and 296Cys to Ser were dissolved in N. Saline (0.9% NaCl) and injected i.v. in 100-μL volumes. Peptides 100 and 181 were dissolved in DMSO prior to diluting 1/100 in N. Saline. Additional mice received peptides prior to Sham treatment.
(§2) After euthanasia, an additional 2-cm intestinal section from each mouse was immediately snap frozen in O.C.T. freezing medium and 8 μm sections were placed on slides for immunohistochemistry. The C3 deposition and F4/80 expression on the tissue sections were detected by staining with a purified rat-anti-mouse C3 (Hycult Biotechnologies; Plymouth Meeting, Pa.) or F4/80 (eBioscience; San Diego, Calif.) antibody followed by a Texas-red conjugated donkey-anti-rat IgG secondary antibody (Jackson Immunoresearch). CD31 (PECAM-1) and CD106 (VCAM-1) were detected by FITC conjugated rat anti-mouse CD31 or CD106 (Biolegend; San Diego, Calif.) antibodies. Each experiment contained serial sections stained with the appropriate isotype control antibodies. All slides were mounted with ProLong Gold (Invitrogen). Images were obtained at room temperature using a Nikon Eclipse 80i microscope equipped with a CoolSnap CF camera (Photometrics) and analyzed using Metavue software (Molecular Devices). The fluorescence was semi-quantitated using Image J software (NIH) using the fluorescent area fraction after setting threshold for each experiment. The average of the isotype control was subtracted from each photo.

The test system of test [2] is CD106 (VCAM-1). Description: Intestinal IR, VCAM immunohistochemistry. Particulars: C57Bl/6 mice, peptide prior to IR, data not shown. On the procedure: as §1, with “Peptides 100 and 181 were dissolved in DMSO prior to diluting 1/100 in N. Saline. Additional mice received peptides prior to Sham treatment.” left out
as §2, with “Each experiment contained serial sections stained with the appropriate isotype control antibodies. All slides were mounted with ProLong Gold (Invitrogen).” left out, “The average of the isotype control was subtracted from each photo.” left out

Test [3] deals with IL-6. Description: Intestinal IR, ex vivo IL-6 generation. To be noted: for IL-6 Induction: C57Bl/6 mice subjected to IR, peptide 40 μM i.v. 5 min prior to artery occlusion; for IR induced IL-6 production: C57Bl/6 mice, peptide prior to IR. Further details: key to IL-6 Induction: + indicates significant difference from Sham treated mice; − indicates not significantly different from C57B1/6 sham treated mice; +/− indicates no significant difference from either C57B1/6 mice subjected to either Sham or IR. On the procedure: as §1
(§3) Ex vivo generation of eicosanoids by mid-jejunal tissue was determined. Immediately after collection, a 2-cm intestinal section from each mouse was minced, washed, resuspended in 37° C. oxygenated Tyrode's buffer (Sigma-Aldrich; St. Louis, Mo.), incubated at 37° C. for 20 minutes, and the supernatant collected. PGE2 and LTB4 concentrations were determined using enzyme immunoassay kits (Cayman Chemical; Ann Arbor, Mich.). IL-6 and IL-12 concentrations were determined using a Milliplex MAP immunoassay kit (Millipore) and read on a Milliplex Analyzer (Millipore). All eicosanoid and cytokine concentrations were standardized to the total tissue protein content.
(§4) Total peroxidase, LTB4, PGE2, IL-6, IL-12p40, and IL-12p70 concentrations were determined using the procedures described in Example 1.

For test [4], the system named is PGE2. Description: Intestinal IR, ex vivo PGE2 generation. To be noted: for IR-induced intestinal PGE2 production: C57Bl/6 mice, peptide 40 μM prior to IR. Further details: key to PGE2 Production: + indicates significant difference from Sham treated mice; − indicates not significantly different from C57B1/6 sham treated mice; +/− indicates no significant difference from either C57B1/6 mice subjected to either Sham or IR. On the procedure: C57Bl/6 and Rag-1^−/− mice were subjected to ischemia followed by reperfusion similar to previously described studies (Moses, T. et al., J. Leukoc. Biol. 86:971-980 (2009)). Briefly, ketamine (16 mg/kg) and xylazine (80 mg/kg) were used to anesthetize the mice. Buprenorphine (0.06 mg/kg) was then administered for pain. A midline laparotomy was performed to expose the abdominal cavity of the mice, which were then allowed to equilibrate for 30 min. Body temperature was maintained at 37° C. using a water-circulating heat pad. Placing a warm, saline moistened piece of gauze over the abdominal cavity prevented peritoneal desiccation. […] Ischemia was noted by the intestine changing from a pink color to a gray color. After 30 min of ischemia, the clamp was removed and the intestines were allowed to reperfuse for 5, 10, 15, or 120 min. […] Peptides 296, 305, and 296Cys to Ser were dissolved in N. Saline (0.9% NaCl) and injected i.v. in 100-μL volumes. Peptides 100 and 181 were dissolved in DMSO prior to diluting 1/100 in N. Saline. Additional mice received peptides prior to Sham treatment.
as §3, §4

The mark [5] stands for this setting: C57Bl/6 mice subjected to IR, peptide 40 μM i.v. 5 min prior to artery occlusion.
[6] abbreviates: 10 μM peptide 5 min prior to IR.
Where [7] appears, read: administered at 15 min post-reperfusion.

As for “H-IHFYCKNKEKKCSYTVEAHCRDGTI-OH (cysteine pairing not given here) [peptide 296]”, in test [1], the “C3 Deposition” value was “−” and the “C3 deposition / complement activation after IR” value is “significantly decreased C3 deposition; also recorded: attenuated complement activation”. The “expression of adhesion molecule VCAM after IR” value (from here on “expression”) in test [2] is listed as “inhibited”. Also, in test [3], the “IL-6 Induction” value is reported as “−” and the “IR induced IL-6 production” value is “attenuated; also recorded: inhibit”. The “PGE2 Production” value in test [4] (setting [5]) is “−”. In addition, the “IR-induced intestinal PGE2 production” value in test [4] is recorded as “attenuated; also recorded: blocked”.
With “H-IHFYSKNKEKKSSYTVEAHSRDGTI-OH [peptide 296Cys-Ser]”, in test [1], the “C3 Deposition” value was “−” and the “C3 deposition / complement activation after IR” value is “significantly decreased C3 deposition; also recorded: attenuated complement activation”. For the same substance, in test [2], the “expression” value is “inhibited”. Also, in test [3], the “IL-6 Induction” value is listed as “−” and the “IR induced IL-6 production” value is reported as “attenuated; also recorded: inhibit”. Further, in test [4] (setting [6]), the PGE2 Production entry was “optimally attenuated”. Also, in test [4] (setting [5]), the “PGE2 Production” value is on record as “−”. Besides, the “IR-induced intestinal PGE2 production” value in test [4] is reported as “attenuated; also recorded: blocked”. For the same substance, in test [4] (setting [7]), the PGE2 Production result is “attenuated”.
Regarding “H-IPSCFKEHSSLAFWKTDASELTPC-NH2 (cysteine pairing not given here) [peptide 322, 18]”, in test [1], the “C3 Deposition” value is “+” and the “C3 deposition / complement activation after IR” value is given as “did not significantly inhibit C3 deposition”. Besides, in test [3], the “IL-6 Induction” value is listed as “+” and the “IR induced IL-6 production” value is listed as “did not inhibit”. Further, in test [4] (setting [5]), the “PGE2 Production” value is reported as “+”. Also, the “IR-induced intestinal PGE2 production” value in test [4] is reported as “sustained inflammation similar to untreated mice”.
In the case of “H-KKCSYTVEAHCRDGTIEIPSCFKEHS-OH (cysteine pairing not given here) [peptide 305, 10]”, in test [1], the “C3 Deposition” value was “−” and the “C3 deposition / complement activation after IR” value was “not significantly different from either Sham or IR treatment; also recorded: attenuated complement activation”. For the same substance, in test [2], the “expression” value is reported as “inhibited”. Further, in test [3], the “IL-6 Induction” value is given as “−” and the “IR induced IL-6 production” value was “attenuated; also recorded: inhibited”. In addition, in test [4] (setting [6]), the PGE2 Production entry is “optimally attenuated”. Besides, in test [4] (setting [5]), the “PGE2 Production” value is “+/−”. In addition, the “IR-induced intestinal PGE2 production” value in test [4] was “did not attenuate; also recorded: but not eicosanoid production”. For the same substance, in test [4] (setting [7]), the PGE2 Production entry was “attenuated”.
With “H-KNISFACNPGFFLNG-NH2 [peptide 100, 16, reference compound]”, in test [1], the “C3 Deposition” value is given as “+” and the “C3 deposition / complement activation after IR” value is reported as “did not significantly inhibit C3 deposition”. In addition, in test [3], the “IL-6 Induction” value is given as “+/−” and the “IR induced IL-6 production” value is on record as “attenuated IL-6 production”. Moreover, the “PGE2 Production” value in test [4] (setting [5]) is on record as “+”. In addition, the “IR-induced intestinal PGE2 production” value in test [4] was “sustained inflammation similar to untreated mice”.
